Source: patent US20260262643A1, “HERBICIDAL BENZOXAZINES” (FMC CORPORATION, priority 2022, published 2026)

Legend:
soybean [1] = experiment: Test C postemergence; type: in vivo, Glycine max; settings: 10 days, 0 to 100 scale (0 no effect, 100 complete control)
Outline: (§1)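 Pre: seeds in loam/sand, directed soil spray. Post: 1–2 leaf plants, 2–10 cm. Cmpd in non-phytotoxic solvent + surfactant. Greenhouse 10 d; visual rating vs untreated, 0 = none, 100 = complete control.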

horseweed = experiment: Test C postemergence; type: in vivo, Erigeron canadensis; settings: 10 days, 0 to 100 scale (0 no effect, 100 complete control)
Outline: as §1

sedge, umbrella = experiment: Test D flooded paddy test; type: in vivo, Cyperus difformis; settings: 250 g ai/ha, applied to paddy water, visual rating after 13 to 14 days, scale 0 to 100 (0 no effect, 100 complete control)
Outline: (§2)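 Rating scale 0–100 (0 no effect, 100 complete control), visual, versus controls. Readout at 13–14 days after in-water application to 2-leaf plants in pots flooded 3 cm deep.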

barnyardgrass [2] = experiment: Test C postemergence; type: in vivo, Echinochloa crusgalli; settings: 10 days, 0 to 100 scale (0 no effect, 100 complete control)
Outline: as §1

soybean [3] = experiment: Test C preemergence; type: in vivo, Glycine max
Outline: as §1

rice = experiment: Test D flooded paddy test; type: in vivo, Oryza sativa; settings: 250 g ai/ha, applied to paddy water, visual rating after 13 to 14 days, scale 0 to 100 (0 no effect, 100 complete control)
Outline: as §2

ryegrass, Italian [4] = experiment: Test C preemergence; type: in vivo, Lolium multiflorum
Outline: as §1

ryegrass, Italian [5] = experiment: Test C postemergence; type: in vivo, Lolium multiflorum; settings: 10 days, 0 to 100 scale (0 no effect, 100 complete control)
Outline: as §1

kochia [6] = experiment: Test C postemergence; type: in vivo, Bassia scoparia; settings: 10 days, 0 to 100 scale (0 no effect, 100 complete control)
Outline: as §1

wheat [7] = experiment: Test C postemergence; type: in vivo, Triticum aestivum; settings: 10 days, 0 to 100 scale (0 no effect, 100 complete control)
Outline: as §1

foxtail, giant [8] = experiment: Test C preemergence; type: in vivo, Setaria faberi
Text: (§3) Seeds of plant species selected from barnyardgrass (Echinochloa crusgalli), blackgrass (Alopecurus myosuroides), corn (Zea mays), foxtail, giant (giant foxtail, Setaria faberi), green foxtail (Setaria viridis), goosegrass (Eleusine indica), kochia (Bassia scoparia), oat, wild (wild oat, Avena fatua), pigweed, palmer (palmer amaranth, palmer pigweed, Amaranthus palmeri), Pigweed, Redroot (redroot pigweed, Amaranthus retroflexus), ragweed (common ragweed, Ambrosia artemisiifolia), ryegrass, Italian ([…] ryegrass, Lolium multiflorum), soybean (Glycine max), and wheat (Triticum aestivum) were planted into a blend of loam soil and sand and treated preemergence with a directed soil spray using test chemicals formulated in a non-phytotoxic solvent mixture which included a surfactant. At the same time, plants selected from these crops and weed species and also galium (catchweed bedstraw, Galium aparine) and horseweed (Erigeron canadensis) were planted in pots containing the same blend of loam soil and sand and treated with postemergence applications of test chemicals formulated in the same manner. Plants ranged in height from 2 to 10 cm and were in the one- to two-leaf stage for the postemergence treatment. Treated plants and untreated controls were maintained in a greenhouse for 10 days, after which time all treated plants were compared to untreated controls and visually evaluated for injury. Plant response ratings, summarized in Table C, are based on a 0 to 100 scale where 0 is no effect and 100 is complete control. A dash (-) response means no test result.

oat, wild [9] = experiment: Test C preemergence; type: in vivo, Avena fatua
Outline: as §1

blackgrass [10] = experiment: Test C postemergence; type: in vivo, Alopecurus myosuroides; settings: 10 days, 0 to 100 scale (0 no effect, 100 complete control)
Outline: as §1

foxtail, giant [11] = experiment: Test C postemergence; type: in vivo, Setaria faberi; settings: 10 days, 0 to 100 scale (0 no effect, 100 complete control)
Text: as §3

barnyardgrass [12] = experiment: Test D flooded paddy test; type: in vivo, Echinochloa crus-galli; settings: 250 g ai/ha, applied to paddy water, visual rating after 13 to 14 days, scale 0 to 100 (0 no effect, 100 complete control)
Outline: as §2

galium = experiment: Test C postemergence; type: in vivo, Galium aparine; settings: 10 days, 0 to 100 scale (0 no effect, 100 complete control)
Outline: as §1

pigweed, palmer [13] = experiment: Test C preemergence; type: in vivo, Amaranthus palmeri
Outline: as §1

kochia [14] = experiment: Test C preemergence; type: in vivo, Bassia scoparia
Outline: as §1

ragweed [15] = experiment: Test C postemergence; type: in vivo, Ambrosia artemisiifolia; settings: 10 days, 0 to 100 scale (0 no effect, 100 complete control)
Outline: as §1

corn [16] = experiment: Test C postemergence; type: in vivo, Zea mays; settings: 10 days, 0 to 100 scale (0 no effect, 100 complete control)
Outline: as §1

blackgrass [17] = experiment: Test C preemergence; type: in vivo, Alopecurus myosuroides
Outline: as §1

wheat [18] = experiment: Test C preemergence; type: in vivo, Triticum aestivum
Outline: as §1

ragweed [19] = experiment: Test C preemergence; type: in vivo, Ambrosia artemisiifolia
Outline: as §1

corn [20] = experiment: Test C preemergence; type: in vivo, Zea mays
Outline: as §1

ducksalad = experiment: Test D flooded paddy test; type: in vivo, Heteranthera limosa; settings: 250 g ai/ha, applied to paddy water, visual rating after 13 to 14 days, scale 0 to 100 (0 no effect, 100 complete control)
Outline: as §2

pigweed, palmer [21] = experiment: Test C postemergence; type: in vivo, Amaranthus palmeri; settings: 10 days, 0 to 100 scale (0 no effect, 100 complete control)
Outline: as §1

barnyardgrass [22] = experiment: Test C preemergence; type: in vivo, Echinochloa crusgalli
Outline: as §1

oat, wild [23] = experiment: Test C postemergence; type: in vivo, Avena fatua; settings: 10 days, 0 to 100 scale (0 no effect, 100 complete control)
Outline: as §1

[24] = 500 g ai/ha, preemergence, 0 to 100 scale (0 no effect, 100 complete control)
[25] = Preemergence, 125 g ai/ha, 0 to 100 scale, 0 no effect, 100 complete control

SMILES: CC(C)c1ncn(-c2cc(C(=O)N3CC(C(F)(F)F)Oc4c(Cl)cccc43)ccn2)n1 (single isomer, unassigned) [Compound 330]
- Plant response rating, Soybean (soybean [1]; 500 g ai/ha, postemergence): 100
- Plant response rating, Soybean (soybean [1]; Postemergence, 125 g ai/ha): 100
- Plant response rating, Horseweed (horseweed; 500 g ai/ha, postemergence): 20
- Plant response rating, Horseweed (horseweed; Postemergence, 125 g ai/ha): 0
- Plant response rating, Sedge, Umbrella (Flood) (sedge, umbrella): 0
- Plant response rating, Barnyardgrass (barnyardgrass [2]; 500 g ai/ha, postemergence): 70
- Plant response rating, Barnyardgrass (barnyardgrass [2]; Postemergence, 125 g ai/ha): 50
- Soybean plant response rating (soybean [3]; [24]): 80
- Plant response rating, Soybean (soybean [3]; [25]): 40
- Plant response rating, Rice (Flood) (rice): 0
- Ryegrass, Italian plant response rating (ryegrass, Italian [4]; [24]): 100
- Plant response rating, Ryegrass, Italian (ryegrass, Italian [4]; [25]): 100
- Plant response rating, Ryegrass, Italian (ryegrass, Italian [5]; 500 g ai/ha, postemergence): 90
- Plant response rating, Ryegrass, Italian (ryegrass, Italian [5]; Postemergence, 125 g ai/ha): 40
- Plant response rating, Kochia (kochia [6]; 500 g ai/ha, postemergence): 100
- Plant response rating, Kochia (kochia [6]; Postemergence, 125 g ai/ha): 80
- Plant response rating, Wheat (wheat [7]; 500 g ai/ha, postemergence): 30
- Plant response rating, Wheat (wheat [7]; Postemergence, 125 g ai/ha): 20
- Foxtail, Giant plant response rating (foxtail, giant [8]; [24]): 100
- Plant response rating, Foxtail, Giant (foxtail, giant [8]; [25]): 100
- Oat, Wild plant response rating (oat, wild [9]; [24]): 60
- Plant response rating, Oat, Wild (oat, wild [9]; [25]): 30
- Plant response rating, Blackgrass (blackgrass [10]; 500 g ai/ha, postemergence): 90
- Plant response rating, Blackgrass (blackgrass [10]; Postemergence, 125 g ai/ha): 40
- Plant response rating, Foxtail, Giant (foxtail, giant [11]; 500 g ai/ha, postemergence): 90
- Plant response rating, Foxtail, Giant (foxtail, giant [11]; Postemergence, 125 g ai/ha): 50
- Plant response rating, Barnyardgrass (Flood) (barnyardgrass [12]): 0
- Plant response rating, Galium (galium; 500 g ai/ha, postemergence): 100
- Plant response rating, Galium (galium; Postemergence, 125 g ai/ha): 100
- Pigweed, Palmer plant response rating (pigweed, palmer [13]; [24]): 100
- Plant response rating, Pigweed, Palmer (pigweed, palmer [13]; [25]): 100
- Kochia plant response rating (kochia [14]; [24]): 90
- Plant response rating, Kochia (kochia [14]; [25]): 30
- Plant response rating, Ragweed (ragweed [15]; 500 g ai/ha, postemergence): 40
- Plant response rating, Ragweed (ragweed [15]; Postemergence, 125 g ai/ha): 30
- Plant response rating, Corn (corn [16]; 500 g ai/ha, postemergence): 90
- Plant response rating, Corn (corn [16]; Postemergence, 125 g ai/ha): 70
- Blackgrass plant response rating (blackgrass [17]; [24]): 90
- Plant response rating, Blackgrass (blackgrass [17]; [25]): 70
- Wheat plant response rating (wheat [18]; [24]): 30
- Plant response rating, Wheat (wheat [18]; [25]): 20
- Ragweed plant response rating (ragweed [19]; [24]): 50
- Plant response rating, Ragweed (ragweed [19]; [25]): 0
- Corn plant response rating (corn [20]; [24]): 60
- Plant response rating, Corn (corn [20]; [25]): 10
- Plant response rating, Ducksalad (Flood) (ducksalad): 0
- Plant response rating, Pigweed, Palmer (pigweed, palmer [21]; 500 g ai/ha, postemergence): 100
- Plant response rating, Pigweed, Palmer (pigweed, palmer [21]; Postemergence, 125 g ai/ha): 70
- Barnyardgrass plant response rating (barnyardgrass [22]; [24]): 100
- Plant response rating, Barnyardgrass (barnyardgrass [22]; [25]): 70
- Plant response rating, Oat, Wild (oat, wild [23]; 500 g ai/ha, postemergence): 70
- Plant response rating, Oat, Wild (oat, wild [23]; Postemergence, 125 g ai/ha): 30
